# In US8399662B2, “O-acyloxime derivatives, preparation method thereof, and pharmaceutical composition containing the same for prevention and treatment of cardiovascular disease” (Korea Research Institute of Bioscience and Biotechnology, priority 2004, dated 2013):
# Legend:
# Lp-PLA2 = biological target: T1, Lp-PLA2 (Homo sapiens, UniProt Q13093); assay: Measurement of Lp-PLA2 (PAF-AH) activity using [3H]PAF substrate and human LDL as enzyme source; type: biochemical; settings: Lp-PLA2 from human LDL, average of two test results, read-out: Inhibition rate at 25 μM
# T1 construct: LDL was isolated from the plasma by discontinuous density gradient ultra centrifugation; from tissue; host or cells: LDL fraction of human blood plasma from normal lipidemic volunteers
# T1 sequence (Q13093 22-441): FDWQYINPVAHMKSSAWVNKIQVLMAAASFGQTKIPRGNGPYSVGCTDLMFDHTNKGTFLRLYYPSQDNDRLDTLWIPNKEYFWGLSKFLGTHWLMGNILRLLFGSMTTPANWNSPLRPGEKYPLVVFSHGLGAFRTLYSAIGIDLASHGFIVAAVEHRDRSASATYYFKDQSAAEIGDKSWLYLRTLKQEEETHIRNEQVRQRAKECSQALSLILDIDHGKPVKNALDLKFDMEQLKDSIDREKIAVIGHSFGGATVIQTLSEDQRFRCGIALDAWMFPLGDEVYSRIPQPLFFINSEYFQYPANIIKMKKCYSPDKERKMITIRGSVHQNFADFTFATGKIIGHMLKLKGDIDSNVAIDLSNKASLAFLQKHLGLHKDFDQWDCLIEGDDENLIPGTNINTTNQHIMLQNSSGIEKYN
# Method: Blood was collected from normal lipidemic volunteers. EDTA was used as anticoagulant (1.5 mg/ml of blood). […] LDL was isolated from the plasma by discontinuous density gradient ultra centrifugation. Briefly, the plasma was centrifuged at 100,000×g at 4° C. for 20 hours. […] The LDL fraction in the top of the tube was collected and dialyzed overnight against three changes of phosphate buffer (pH 7.4), containing NaCl (150 mM), in the dark at 4° C. to remove NaBr and EDTA. The LDL in PBS was stored at 4° C. and used within 4 weeks. The purity of the fraction was confirmed by agarose gel electrophoresis and SDS-PAGE. Concentration of LDL protein was determined using bovine serum albumin (BSA) as a standard.
# Lp-PLA2, the enzyme is also known as platelet-activating factor acetylhydrolase (PAF-AH), activity was measured using [^3H]PAF as a substrate. […] The reaction mixture, containing 20 μL of diluted human LDL (Lp-PLA2 source, 4-5 μg protein), 120 μL of PBS-EDTA, and 20 μL of test sample, was preincubated at 37° C. for 15 min. The reaction was initiated by the addition of 40 μL micelle substrate (0.1 μCi, final conc. 80 μM PAF) to measure initial rates of PAF-AH activity. […] The raw counts were corrected for background using a nonenzyme-containing blank and were expressed as nanomoles of PAF degraded per hour per milligram of protein.
# in vivo = settings: both, ICR, mouse, in vivo, po
# Method: (§1) Specific pathogens free ICR mice of 4 weeks old (12 females and 12 males; 3 females and 3 males/dosage group) were raised in an animal chamber controlled with the temperature of 22±3° C., humidity of 55±10%, and illumination of 12L/12D cycle. The mice were acclimated for a week before the test. Feed for a test animal (CJ Corp., for mouse and rat) and water were supplied after sterilization and taken by the mice without any restriction.
# (§2) The amount of 0.04 ml (100 mg/kg), 0.2 ml (500 mg/kg), and 0.4 ml (1,000 mg/kg) per mouse weight of 20 g was dosed individually to the mice by oral administration. The samples were dosed only one time, and adverse effect and mortality were observed during 7 days after the dosing as follows.
# (§3) Additionally, on seventh day after the administration, the animals were sacrificed and dissected to examine internal organs with naked eye. Weight loss due to (E)-3,4-di-fluorobenzaldehyde O-benzoyloxime or (E)-2,3-di-fluorobenzaldehyde O-morpholine-4-carbonyloxime was observed by measuring weight changes at the intervals of 1 day since the dosage.
# ICR mice = assay: in vivo; settings: single oral dose up to 1,000 mg/kg, ICR mice, 7 days
# Method: as §1, §2, §3
inhibition at 25 µM (Lp-PLA2) [%],Compound,LD50 at 7 days (in vivo) [mg/kg],"toxicity (clinical symptoms, weight change, blood test, biochemical test of blood, necropsy) (ICR mice)"
29,"O=C(O/N=C(\OC(=O)c1ccccc1)c1ccccc1)c1ccccc1 [Example 16, (E)-1-benzoic acid-benzaldehyde O-benzoyloxime]",,
,"O=C(O/N=C/c1ccc(F)c(F)c1)c1ccccc1 [Example 21, (E)-3,4-di-fluorobenzaldehyde O-benzoyloxime]",> 1000,
,"O=C(O/N=C/c1cccc(F)c1F)N1CCOCC1 [Example 30, (E)-2,3-di-fluorobenzaldehyde O-morpholine-4-carbonyloxime]",> 1000,did not show any toxicity
